Consider 9 molecules from ChEMBL document CHEMBL5257082, “Bacterial GTPases as druggable targets to tackle antimicrobial resistance” (Bioorg Med Chem Lett, 2023).

The subject of data set [1] is Staphylococcus aureus. Description: Antibacterial activity against Staphylococcus aureus. The format is functional.
In a further data set the test system is Escherichia coli. Description: Antibacterial activity against Escherichia coli. Type of data set: functional.
The subject of data set [2] is Staphylococcus aureus. Briefly: Antibacterial activity against vancomycin-resistant Staphylococcus aureus. The format is functional.
A short description of data set [3]: Intrinsic clearance in BALB/c mouse at 24 mg/kg, iv. The settings on record: in vivo. Type of data set: ADME, organism-based.
Data set [4] has as its system Staphylococcus aureus. Description: Antibacterial activity against methicillin-resistant Staphylococcus aureus. The format is functional.
In data set [5] the test system is Staphylococcus aureus. Briefly: Antibacterial activity against linezolid-nonsusceptible Staphylococcus aureus. Type of data set: functional.
In another data set the test system is Enterococcus faecalis. Briefly: Antibacterial activity against Enterococcus faecalis. The format is functional.
The test system of a further data set is Streptococcus pyogenes. Description: Antibacterial activity against Streptococcus pyogenes. The format is functional.
The target of data set [6] is T1, Cell division protein FtsZ (Staphylococcus aureus, UniProt P0A031).
T1 sequence (P0A031 whole entry): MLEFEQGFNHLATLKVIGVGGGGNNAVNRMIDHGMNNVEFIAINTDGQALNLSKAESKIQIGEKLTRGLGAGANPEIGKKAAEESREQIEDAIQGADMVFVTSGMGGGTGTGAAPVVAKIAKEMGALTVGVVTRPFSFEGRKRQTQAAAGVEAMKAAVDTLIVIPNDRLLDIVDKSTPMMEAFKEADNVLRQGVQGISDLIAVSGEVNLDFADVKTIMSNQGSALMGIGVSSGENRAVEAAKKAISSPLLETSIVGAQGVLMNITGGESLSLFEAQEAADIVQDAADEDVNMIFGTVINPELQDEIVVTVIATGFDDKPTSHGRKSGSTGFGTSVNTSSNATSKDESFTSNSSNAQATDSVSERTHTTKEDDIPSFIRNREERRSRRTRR
Description: Inhibition of Staphylococcus aureus FTsZ GTPase activity.

The test system of the next data set is Streptococcus pneumoniae. Description: Antibacterial activity against Streptococcus pneumoniae. Type of data set: functional.
In the next data set the test system is Bacillus subtilis. Description: Antibacterial activity against Bacillus subtilis. The format is functional.
The subject of a further data set is Klebsiella pneumoniae. Briefly: Antibacterial activity against Klebsiella pneumoniae. Type of data set: functional.
The next data set relates to Pseudomonas aeruginosa. Briefly: Antibacterial activity against Pseudomonas aeruginosa. The format is functional.
The next data set has as its system Acinetobacter baumannii. Briefly: Antibacterial activity against Acinetobacter baumannii. The format is functional.
For another data set, the system named is Enterococcus faecium. Briefly: Antibacterial activity against Enterococcus faecium. Type of data set: functional.
A further data set has as its system Neisseria gonorrhoeae. Description: Antibacterial activity against Neisseria gonorrhoeae. Type of data set: functional.
Another data set deals with Haemophilus influenzae. Description: Antibacterial activity against Haemophilus influenzae. The format is functional.
In the next data set the test system is Micrococcus luteus. Description: Antibacterial activity against Micrococcus luteus. The format is functional.
In the next data set the test system is Neisseria meningitidis. Briefly: Antibacterial activity against Neisseria meningitidis. The format is functional.

pIC50: −log10 of the molar value. In brackets after ≈: the same amount, converted by molar mass. A value given as a limit tells only on which side of the number the result lay.

Regarding `Cc1cc(Cl)ccc1OC(C)C(=O)Nc1ccc(C(=O)Nc2ccccc2C(=O)O)cc1` (centres undefined), the MIC is more than 25 µg/mL against Staphylococcus aureus [1] and more than 200 µg/mL in the data set on Escherichia coli.
The like results for `O=C(O)c1[nH]c2ccc(Cl)cc2c1CC(=O)N1CCN(c2ccc(C(F)(F)F)cc2)CC1` were, in that order, more than 50 µg/mL and more than 200 µg/mL.
In the case of `CN1CCC(C(=O)NC(=O)c2c(F)ccc(OCc3nc4cc(C(F)(F)F)cnc4s3)c2F)CC1`, the MIC with Staphylococcus aureus [2], against Staphylococcus aureus [4] and in the data set with Staphylococcus aureus [5] was 2 µg/mL (≈ 3.89 µM) each time. Also, the CL in [3] turned out to be 9.4 mL/min/kg.
Turning to `NC(=O)c1c(F)ccc(OCc2nc3cc(Cl)cnc3s2)c1F`, the MIC is more than 64 µg/mL against Enterococcus faecalis; more than 64 µg/mL in the data set on Streptococcus pyogenes; more than 64 µg/mL with Escherichia coli; more than 64 µg/mL with Streptococcus pneumoniae; 1 µg/mL (≈ 2.81 µM) against Bacillus subtilis; 1 µg/mL (≈ 2.81 µM) in the data set on Staphylococcus aureus [4]. This molecule registered a CL in [3] of 55.11 mL/min/kg. This molecule had a negative logarithm of the IC50 (pIC50) in [6] of 6.82.
In the case of `CO[C@@H]1[C@H](O)[C@@H](OC)[C@H](O[C@@H](C)[C@@H](O)/C=C/C=C/C=C/C(=O)[C@@H](C)[C@@H](O)[C@H](C)C2C/C=C/C=C/C=C/[C@H](O)C(=O)/C(C)=C/C=C/C(C)=C/[C@@H](O)/C(C)=C/CC(=O)O2)O[C@@H]1C` (some centres undefined), the MIC in the data set on Enterococcus faecalis is 32 µg/mL (≈ 38.1 µM); against Klebsiella pneumoniae it was more than 128 µg/mL; against Staphylococcus aureus [1] it was 2 µg/mL (≈ 2.38 µM); in the data set with Pseudomonas aeruginosa, 32 µg/mL (≈ 38.1 µM); against Escherichia coli it was 32 µg/mL (≈ 38.1 µM); against Acinetobacter baumannii it was 32 µg/mL (≈ 38.1 µM).
Turning to `C/C=C\C=C\[C@@H]1C[C@](O)([C@H](CC)C(=O)NC/C=C/C=C(\C)[C@H](OC)[C@H](C)C2O[C@H](/C=C/C=C/C=C(\C)C(=O)c3c(O)cc[nH]c3=O)[C@H](O)[C@@H]2O)[C@H](O)[C@H](O)C1(C)C` (some centres undefined), the MIC in the data set with Enterococcus faecium was 2 µg/mL (≈ 2.52 µM); against Enterococcus faecalis, more than 32 µg/mL; with Neisseria gonorrhoeae it was 0.06 µg/mL (≈ 0.0755 µM); in the data set on Staphylococcus aureus [1], more than 32 µg/mL; with Escherichia coli, more than 128 µg/mL; in the data set on Haemophilus influenzae, 4 µg/mL (≈ 5.03 µM).
On to `CC(=O)O[C@H]1C[C@@]2(C)[C@@H](C[C@@H](O)[C@H]3[C@@]4(C)CC[C@@H](O)[C@@H](C)[C@@H]4CC[C@@]32C)/C1=C(\CCC=C(C)C)C(=O)O` [FUSIDIC ACID], for which the MIC was 2 µg/mL (≈ 3.87 µM) in the data set on Enterococcus faecalis; 16 µg/mL (≈ 31 µM) in the data set on Streptococcus pyogenes; 0.5 µg/mL (≈ 0.968 µM) against Micrococcus luteus; more than 32 µg/mL against Escherichia coli; 0.25 µg/mL (≈ 0.484 µM) in the data set on Staphylococcus aureus [4]; 0.25 µg/mL (≈ 0.484 µM) against Neisseria meningitidis.
For the molecule `CC/C=C/[C@@H](OC(N)=O)[C@@H](Cl)[C@H](O)CC(=O)[C@@H](O)[C@H](O)C(C)/C(Cl)=C/C=C/C=C(C)/C=C/C=C/C(=O)O[C@@H]1CC(C(=O)O)CC[C@@H]1O` (some centres undefined), the MIC against Staphylococcus aureus [1] was 2 µg/mL (≈ 2.85 µM); with Pseudomonas aeruginosa, more than 32 µg/mL; against Acinetobacter baumannii, more than 32 µg/mL.
As for `COc1ccc(/C=C(\C#N)C(=O)Nc2cccc(C(=O)O)c2)cc1OC(=O)c1cccc2ccccc12`, the MIC is more than 50 µg/mL with Staphylococcus aureus [1] and more than 200 µg/mL against Escherichia coli.

In general, pIC50 refers to −log10 of the IC50, conventionally taken in molar units.
